Data from ChEMBL document CHEMBL3871298, “Virtual screening and biophysical studies lead to HSP90 inhibitors” (Bioorg Med Chem Lett, 2017).
Activity calls are given as the source filed them. The rule behind the calls is not given here.

Columns and labels:
Saccharomyces cerevisiae = experiment: Binding affinity to yeast HSP90 N-terminal ATP binding domain by high-throughput virtual screening method
[1] = Aqueous solubility of the compound at >100 uM; assay type: physicochemical; conditions: buffer
[2] = target: T1, Heat shock protein HSP 90-alpha (Homo sapiens, UniProt P07900); experiment: Binding affinity to human HSP90alpha isoform 1 N-terminal ATP binding domain (9 to 236 residues) expressed in Escherichia coli BL21(DE3) assessed as melting temperature at 100 uM by SYPRO orange dye-based thermal shift assay
[3] = target: T1, Heat shock protein HSP 90-alpha; experiment: Binding affinity to 15N-labeled human HSP90alpha isoform 1 N-terminal ATP binding domain (9 to 236 residues) expressed in Escherichia coli BL21(DE3) by 1H-15N HSQC NMR spectroscopy
[4] = target: T1, Heat shock protein HSP 90-alpha; experiment: Binding affinity to 15N-labeled human HSP90alpha isoform 1 N-terminal ATP binding domain (9 to 236 residues) expressed in Escherichia coli BL21(DE3) assessed as reduction in protein signal intensity at 625 uM by 1H-15N HSQC NMR spectroscopy

Activity (Saccharomyces cerevisiae)	solubility [1]	Tm [2] [°C]	Kd [3] [µM]	Activity [4]	SMILES
Active	Soluble	32.4	–	–	Cc1oc2cc(OCC(=O)NCO)ccc2c(=O)c1-c1ccc2c(c1)OCCCO2
Active	Soluble	37.5	370	–	O=C(Cc1ccc2c(c1)OCCCO2)c1ccc(O)c(O)c1O
Active	Soluble	36.5	–	–	O=c1c2[nH]c3ccccc3c2ncn1CCc1ccc(O)c(O)c1
Active	Soluble	49.8	3	–	CCOC(=O)c1ccc(-c2c(-c3cc(CC)c(O)cc3O)n[nH]c2C)o1
Active	Soluble	31.8	–	–	CC(=O)Nc1ccc(N[C@@H]2O[C@H](CO)[C@@H](O)[C@H]2O)cc1
Active	Soluble	32.7	–	Active	Cc1c(OCc2ccc(C(=O)O)o2)ccc2c3c(c(=O)oc12)CCC3
Active	Soluble	32.4	–	–	Cc1cc(=O)oc2cc(OCc3ccc(C(=O)O)o3)ccc12
Active	Soluble	41.7	> 500	–	CCCc1cc(C(=O)Cc2ccc3c(c2)OCO3)c(O)cc1O
Active	Soluble	32.5	–	–	CC(NCc1c(O)ccc2c(-c3ccccc3)cc(=O)oc12)C(=O)O (configuration not stated)
Active	Soluble	40.3	2	–	CCCc1cc(C(=O)Cc2ccc(C(=O)OCC)o2)c(O)cc1O
Active	Insoluble	30.8	–	–	O=c1c2[nH]c3ccccc3c2ncn1CCc1ccc(O)cc1
Active	Soluble	32.8	–	–	O=C(Cc1c(O)c2ccccc2[nH]c1=O)NCCO
Active	Soluble	32.2	–	–	CCc1cc(-c2n[nH]c(C)c2-c2ccc3c(c2)OCCCO3)c(O)cc1OCC(=O)O
Active	Soluble	35.5	–	–	N=c1oc2cc(O)ccc2cc1C(=O)NCc1ccccc1
Active	Soluble	32.4	–	–	CCOC(=O)c1cc2n(c1N)-c1ccccc1C2=O
Active	Soluble	42.1	20	–	CCc1cc(C(=O)Cc2ccc(OC)cc2)c(O)cc1O
Active	Soluble	31.3	–	–	O=C(O)C1Cc2c([nH]c3ccccc23)C(c2ccc(O)c(O)c2)N1 (configuration not stated)
–	–	36.7	–	–	Nc1ncnc2c1ncn2[C@@H]1O[C@H](COP(=O)(O)OP(=O)(O)O)[C@@H](O)[C@H]1O
Active	Soluble	32.4	–	–	O=C(O)COc1cc(OCC(=O)O)c2c(-c3ccccc3)cc(=O)oc2c1

SMILES	Activity (Saccharomyces cerevisiae)	solubility [1]	Tm [2] [°C]	Kd [3] [µM]	Activity [4]
COc1ccc2[nH]cc(C(=O)CN3C[C@@H]4C[C@@H](C3)c3cccc(=O)n3C4)c2c1	Active	Soluble	33.1	–	–
O=c1c2[nH]c3ccccc3c2ncn1CCc1c[nH]cn1	Active	Soluble	32.3	–	–
